# Test results as given in paper PMC4529485 (Biochemistry, 2010).
# Molecular target: myeloperoxidase (MPO) (Homo sapiens, UniProt P05164)
# Assay: flash photolysis/recombination kinetics
# Format: binding
# Sequence of myeloperoxidase (MPO) (P05164 165-273): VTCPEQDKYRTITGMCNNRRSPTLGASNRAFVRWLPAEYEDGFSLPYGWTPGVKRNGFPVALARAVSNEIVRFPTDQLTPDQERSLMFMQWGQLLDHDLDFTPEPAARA
# Sequence of myeloperoxidase (MPO) (P05164 279-745): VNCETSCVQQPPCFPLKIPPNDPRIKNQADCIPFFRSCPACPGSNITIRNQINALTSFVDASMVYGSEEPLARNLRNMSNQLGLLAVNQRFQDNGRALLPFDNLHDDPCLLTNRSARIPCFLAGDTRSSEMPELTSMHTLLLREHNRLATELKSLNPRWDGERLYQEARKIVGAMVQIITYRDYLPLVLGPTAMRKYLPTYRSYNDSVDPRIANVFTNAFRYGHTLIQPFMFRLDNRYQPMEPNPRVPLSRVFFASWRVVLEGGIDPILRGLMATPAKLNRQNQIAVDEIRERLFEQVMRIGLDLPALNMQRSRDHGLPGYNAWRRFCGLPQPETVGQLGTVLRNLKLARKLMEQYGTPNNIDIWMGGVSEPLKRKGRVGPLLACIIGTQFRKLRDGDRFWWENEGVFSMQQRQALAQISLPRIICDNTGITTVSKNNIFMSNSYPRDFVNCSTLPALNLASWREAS
compound,measurement,value
[C-]#[O+] [CO],Kd,1.6 mM
